Measured values as given in publication PMC4290489, “Identification of multiple salicylic acid-binding proteins using two high throughput screens” (Frontiers in Plant Science, 2015).

What was measured:
Assay type in all cases: binding
UGE2 = target: T1, UGE2 (Arabidopsis thaliana, UniProt Q9T0A7); assay: UV photo-crosslinking, anti-SA immunoblot; settings: 50 uM 4AzSA, PBS, on ice, 254 nm UV; covalent; competed by SA
T1 construct: N-terminal His6 (pET28a), from E. coli
T1 sequence (Q9T0A7 1-350): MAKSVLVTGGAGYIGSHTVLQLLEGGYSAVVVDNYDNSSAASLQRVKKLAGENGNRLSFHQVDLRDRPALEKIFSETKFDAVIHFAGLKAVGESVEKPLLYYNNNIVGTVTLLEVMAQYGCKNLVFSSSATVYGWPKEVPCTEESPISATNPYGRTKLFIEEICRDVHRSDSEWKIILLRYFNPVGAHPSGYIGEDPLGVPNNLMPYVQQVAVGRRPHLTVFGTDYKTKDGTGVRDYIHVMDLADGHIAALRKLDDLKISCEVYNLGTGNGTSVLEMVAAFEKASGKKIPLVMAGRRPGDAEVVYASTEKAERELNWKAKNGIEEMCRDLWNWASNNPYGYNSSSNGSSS

HPR2 = target: T2, HPR2 (Arabidopsis thaliana, UniProt Q9CA90); assay: UV photo-crosslinking, anti-SA immunoblot; settings: 50 uM 4AzSA, PBS, on ice, 254 nm UV; covalent; competed by SA
T2 construct: N-terminal His6 (pET28a), from E. coli
T2 sequence (Q9CA90 1-313): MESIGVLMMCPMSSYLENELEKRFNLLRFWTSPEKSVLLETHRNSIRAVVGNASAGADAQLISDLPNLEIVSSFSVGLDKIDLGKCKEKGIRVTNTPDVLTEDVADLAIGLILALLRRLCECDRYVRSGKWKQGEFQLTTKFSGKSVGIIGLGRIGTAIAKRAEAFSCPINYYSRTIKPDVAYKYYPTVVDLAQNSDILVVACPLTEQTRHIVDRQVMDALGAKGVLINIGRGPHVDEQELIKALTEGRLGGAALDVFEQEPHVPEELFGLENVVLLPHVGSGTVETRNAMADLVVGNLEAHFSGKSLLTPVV

GSR2 = target: T3, GSR2 (Arabidopsis thaliana, UniProt Q8LCE1); assay: SPR competition on 3AESA chip; competition of 4AzSA photo-crosslinking; settings: 1-5 mM SA, HBS-EP pH 7.4 (SPR); competes with 3AESA and 4AzSA
T3 construct: gene GLN1-2; N-terminal His6 (pET28a), from E. coli
T3 sequence (Q8LCE1 1-356): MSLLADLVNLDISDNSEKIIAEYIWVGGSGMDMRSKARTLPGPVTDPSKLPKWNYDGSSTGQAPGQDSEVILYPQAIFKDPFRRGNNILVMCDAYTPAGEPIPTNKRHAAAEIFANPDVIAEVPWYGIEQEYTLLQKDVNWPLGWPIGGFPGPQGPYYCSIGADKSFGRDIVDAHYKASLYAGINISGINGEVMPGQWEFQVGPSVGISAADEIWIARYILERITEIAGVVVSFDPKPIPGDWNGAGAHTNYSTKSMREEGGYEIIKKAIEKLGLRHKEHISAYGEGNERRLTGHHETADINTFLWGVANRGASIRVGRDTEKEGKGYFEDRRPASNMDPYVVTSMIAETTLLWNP

SHM4 = target: T4, SHM4 (Arabidopsis thaliana, UniProt O23254); assay: as above; settings: 1-5 mM SA, HBS-EP pH 7.4 (SPR); competes with 3AESA and 4AzSA
T4 construct: N-terminal His6 (pET28a), from E. coli
T4 sequence (O23254 1-471): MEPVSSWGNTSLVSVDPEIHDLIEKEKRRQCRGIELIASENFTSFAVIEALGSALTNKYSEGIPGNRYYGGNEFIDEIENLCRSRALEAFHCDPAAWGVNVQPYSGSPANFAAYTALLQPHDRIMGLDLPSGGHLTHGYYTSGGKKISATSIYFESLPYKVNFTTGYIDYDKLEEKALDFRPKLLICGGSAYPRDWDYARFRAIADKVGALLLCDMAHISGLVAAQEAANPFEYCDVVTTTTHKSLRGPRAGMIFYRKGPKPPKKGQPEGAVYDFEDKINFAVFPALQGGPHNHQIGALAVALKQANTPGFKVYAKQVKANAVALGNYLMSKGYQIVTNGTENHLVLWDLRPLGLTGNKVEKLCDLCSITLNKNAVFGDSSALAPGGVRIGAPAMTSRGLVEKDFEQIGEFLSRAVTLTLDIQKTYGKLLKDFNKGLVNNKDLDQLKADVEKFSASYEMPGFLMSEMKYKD

LOX2 = target: T5, LOX2 (Arabidopsis thaliana, UniProt P38418); assay: as above; settings: 1-5 mM SA, HBS-EP pH 7.4 (SPR); competes with 3AESA and 4AzSA
T5 construct: N-terminal His6 (pET28a), from E. coli
T5 sequence (P38418 57-896): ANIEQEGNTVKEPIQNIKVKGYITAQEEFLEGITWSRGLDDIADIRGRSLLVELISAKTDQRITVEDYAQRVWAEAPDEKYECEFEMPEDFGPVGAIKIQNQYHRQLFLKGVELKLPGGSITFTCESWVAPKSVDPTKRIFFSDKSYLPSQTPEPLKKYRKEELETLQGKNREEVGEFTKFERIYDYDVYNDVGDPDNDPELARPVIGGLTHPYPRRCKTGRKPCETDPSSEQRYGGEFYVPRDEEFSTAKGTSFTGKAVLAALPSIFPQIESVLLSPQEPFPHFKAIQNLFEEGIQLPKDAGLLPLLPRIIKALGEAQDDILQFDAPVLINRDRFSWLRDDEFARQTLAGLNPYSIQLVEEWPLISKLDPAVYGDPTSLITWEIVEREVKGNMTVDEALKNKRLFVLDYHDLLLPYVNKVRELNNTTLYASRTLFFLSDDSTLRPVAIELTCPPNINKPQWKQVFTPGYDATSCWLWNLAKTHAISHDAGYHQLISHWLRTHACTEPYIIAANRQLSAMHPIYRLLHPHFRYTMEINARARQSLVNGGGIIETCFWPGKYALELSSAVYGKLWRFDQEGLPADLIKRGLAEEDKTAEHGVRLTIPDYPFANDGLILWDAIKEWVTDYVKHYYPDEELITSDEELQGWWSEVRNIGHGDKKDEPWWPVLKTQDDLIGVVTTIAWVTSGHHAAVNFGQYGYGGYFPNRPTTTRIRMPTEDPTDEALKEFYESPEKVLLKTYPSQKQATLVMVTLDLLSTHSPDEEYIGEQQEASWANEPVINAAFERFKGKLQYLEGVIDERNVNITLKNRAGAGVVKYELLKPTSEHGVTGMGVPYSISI

In the case of `[N-]=[N+]=Nc1ccc(C(=O)O)c(O)c1` [4AzSA], the “UV photo-crosslinking, anti-SA immunoblot” value (UGE2) is reported as “bound 3AESA and crosslinked to 4AzSA in an SA-inhibitable manner, indicating that they are SABPs” and the “UV photo-crosslinking, anti-SA immunoblot” value (HPR2) is reported as “bound 3AESA and crosslinked to 4AzSA in an SA-inhibitable manner, indicating that they are SABPs”.
With `O=C(O)c1ccccc1O` [SA] the “SPR competition on 3AESA chip; competition of 4AzSA photo-crosslinking” value (“SPR competition on 3AESA chip” below) (GSR2) was “bound 3AESA and crosslinked to 4AzSA in an SA-inhibitable manner, indicating that they are SABPs”, the “SPR competition on 3AESA chip” value (SHM4) was “SA competes with 3AESA and 4AzSA for binding by TRX-m1, TPPII, SHM4, and LOX2” and the “SPR competition on 3AESA chip” value (LOX2) was “SA competes with 3AESA and 4AzSA for binding by TRX-m1, TPPII, SHM4, and LOX2”.
